Where a name gives a salt, the structure may show the parent alone.
Columns and labels:
[1] = tested on: Iron Overloaded Mouse Model; assay: Liver iron removal from iron overloaded mouse model (ferrozine assay); assay type: in vivo, mice; settings: IV 100 mg/kg chelator on day 7 and day 10 after iron-dextran 100 mg/kg Fe
Experimental: LDFO formulations were prepared as described in Example 1. Both formulations were composed of HSPC/cholesterol (3/0.5 (mol/mol)). One formulation was prepared using 250 mM ammonium sulfate (LDFO-AS) as the trapping agent and the second formulation was prepared using 250 mM ascorbate phosphate (LDFO-AP) as the trapping agent and all other components and DFO loading procedures of the formulations were identical. Mice were overloaded with a single IV injection of iron-dextran at 100 mg/kg Fe. Overloaded mice were treated with each formulation IV at 100 mg/kg chelator on day 7 and day 10. The mice were sacrificed after the second treatment and the livers were analyzed for iron content using a ferrozine assay (Riemer et al. 2004)

[2] = Plasma PK of DFO after IV administration of liposomal DFO or Desferal to mice; assay type: in vivo, CF-1 female mice; settings: 100 mg/kg
Experimental: Liposomes containing egg PC/Chol (3 mol/2 mol, LDFO-1), egg PC/DOPG/Chol (2.7 mol/0.3 mol/2 mol, LDFO-2), and HSPC/Chol (3 mol/2 mol, LDFO-4) containing 500 mM ammonium sulfate were prepared as in Example 1. DFO was remote loaded as in Example 20.
After loading the liposomes were purified by dialysis versus HBS pH 6.5. The liposomes were sterilized by filtration through 0.2 um PES filters and analyzed for drug and lipid content. The liposomal DFO were administered to CF-1 female mice at 100 mg/kg (n=3) and at various times the animals were sacrificed and blood taken.
After processing to plasma, DFO was extracted from plasma by mixing with 6 volumes of methanol containing 0.1% trifluoroacetic acid in an epppendorf tube. The mixtures were vortexed twice for 10 seconds then placed at −80° C. for 1 h. The samples were thawed and centrifuged for 12,000 rpm for 10 min at 4° C. and the supernatant analyzed for DFO by HPLC as described herein. […] By comparison DFO was undetectable beyond 1 h after dosing with Desferal®.

SMILES	mean liver iron content [1] [mg/kg]	DFO in plasma ([2]; beyond 1 h after dosing)	initial dose (ID) of DFO retained in the plasma ([2]; IV, 24 h)
CC(=O)N(O)CCCCCNC(=O)CCC(=O)N(O)CCCCCNC(=O)CCC(=O)N(O)CCCCCN [free DFO, Deferoxamine]	229		
CC(=O)N(O)CCCCCNC(=O)CCC(=O)N(O)CCCCCNC(=O)CCC(=O)N(O)CCCCCN [Desferal, deferoxamine mesylate]		undetectable	undetectable
